Reference: ChEMBL document CHEMBL1201862, “PubChem BioAssay data set” (2004)
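Five concentrations, 48 hours, 96-well plates. GI50 is the concentration that inhibits growth by half.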 The source made the active and inactive calls. Cut-off read from the data, not from the text of the source: active = GI50 up to about 1.1 µM and inactive = higher.

How the values were obtained:
Experiment in all cases: DTP human tumour cell line panel, 48 h
SW-620 = test system: SW-620
RXF 393 = test system: RXF 393
OVCAR-8 = test system: OVCAR-8
HOP-92 = test system: HOP-92
K562 = test system: K562
HCC 2998 = test system: HCC 2998
KM12 = test system: KM12
DMS-273 = test system: DMS-273
SR = test system: SR
786-0 = test system: 786-0
OVCAR-4 = test system: OVCAR-4
NCI-H522 = test system: NCI-H522
A549 = test system: A549
M14 = test system: M14
UO-31 = test system: UO-31
NCI-H226 = test system: NCI-H226
SK-MEL-28 = test system: SK-MEL-28
COLO 205 = test system: COLO 205

Measured: GI50

N#CC12CC3(CCC1CCC1(C2)OCCO1)OCCO3 (centres undefined)
inactive: SW-620 > 100 µM | RXF 393 > 100 µM | OVCAR-8 > 100 µM | HOP-92 > 100 µM | K562 > 100 µM | HCC 2998 > 100 µM | KM12 > 100 µM | DMS-273 > 100 µM | SR > 100 µM | 786-0 > 100 µM | OVCAR-4 > 100 µM | NCI-H522 > 100 µM | A549 > 100 µM | M14 > 100 µM | UO-31 > 100 µM | NCI-H226 > 100 µM | SK-MEL-28 > 100 µM | COLO 205 > 100 µM

O=C(CCc1nnc2s/c(=C\c3ccccc3)c(=O)n12)Nc1cc(Cl)ccc1Cl
inactive: SW-620 4.15 µM | RXF 393 > 100 µM | OVCAR-8 > 100 µM | HOP-92 > 100 µM | K562 > 100 µM | HCC 2998 > 100 µM | KM12 > 100 µM | DMS-273 > 100 µM | SR > 100 µM | 786-0 > 100 µM | OVCAR-4 > 100 µM | NCI-H522 > 100 µM | A549 > 100 µM | M14 > 100 µM | UO-31 > 100 µM | NCI-H226 > 100 µM | SK-MEL-28 > 100 µM | COLO 205 > 100 µM

COc1ccc(NC(=O)CC/C(CC(=O)c2ccco2)=N/Nc2ccc([N+](=O)[O-])cc2[N+](=O)[O-])cc1
inactive: SW-620 99.8 µM | RXF 393 75.9 µM | OVCAR-8 > 100 µM | HOP-92 34.4 µM | K562 32 µM | HCC 2998 > 100 µM | KM12 > 100 µM | DMS-273 57.7 µM | SR 26.7 µM | 786-0 > 100 µM | OVCAR-4 96.2 µM | NCI-H522 55 µM | A549 > 100 µM | M14 > 100 µM | UO-31 > 100 µM | NCI-H226 > 100 µM | SK-MEL-28 > 100 µM | COLO 205 > 100 µM
